From ChEMBL document CHEMBL3507680, “University of Dundee, Gates Library screen for HepG2 cell viability”

Experiment: Human HepG2 cell viability assay in 384 well format
Type: toxicity, cell-based
Parameters: dose 125 nL, time 70.5 hour; concentration not given beside the values
Conditions: HepG2 cells, read-out: Inhibition

Row | SMILES | cytotoxicity at 70.5 h
1 | O=C1c2cccnc2OC(CN2CCOCC2)CN1CC1CC1 (stereo not drawn) | -1.18%
2 | COc1cccc(CNC(=O)C(c2cccc(F)c2)N2CCOCC2)c1 (stereo not drawn) | 10.7%
3 | Cc1cnn(CC2CCCN2C(=O)CN(C)C2CC2)c1 (stereo not drawn) | -11.8%
4 | CC(C)c1nc(S(=O)(=O)N(C)c2ccc(F)cc2)c[nH]1 | -7.45%
5 | Cc1[nH]c2ccccc2c1-c1ccnc(NC[C@H](O)CO)n1 | 26.8%
6 | Nc1nc2c(c(NC(=O)Nc3ccccc3)n1)CCCC2 | 16.9%
7 | CCc1ccc(CN2CCN(c3cccc(OC)c3)C(=O)C2)nc1 | -8.23%
8 | O=C(Nc1cc(C(F)(F)F)c[nH]c1=O)C1CCCNC1 (stereo not drawn) | -8%
9 | Cc1nccn1-c1ccc(NS(=O)(=O)c2cccnc2)cn1 | -1.79%
10 | OCC1CCN(c2ccc(NCc3ccsc3)nc2)CC1 | -5.76%
11 | CNC(=O)[C@@]12CCC3(CCN(S(=O)(=O)C4CC4)CC3)[C@@H]1CN(C(C)=O)C2 | 20.2%
12 | c1cncc(CN2CC[C@H]3O[C@@H](COCC4CC4)CC[C@H]32)c1 | -5.15%
13 | CS(=O)(=O)c1ccc(Cl)c(NC(=O)NCCC2=CCCCC2)c1 | -8.84%
14 | CC(C)c1nc(C2CCCN(C(=O)c3nccn4ccnc34)C2)no1 (stereo not drawn) | -7.38%
15 | O=C(NCc1cnn2ccccc12)NC1CCCC1 | -15.5%
16 | CN1CCN(C(=O)C2CCCN(c3cccnn3)C2)CC1 (stereo not drawn) | 26.4%
17 | Cc1c(-c2ccccc2)nc2c(c(C)c(C)n2CCN(C)C)c1N | 13.6%
18 | CC(C)(C)c1noc(CCC(=O)N(CC2CCOC2)C2CC2)n1 (stereo not drawn) | 2.82%
19 | CN1CCc2c(C#N)c(NCCN3CCOCC3)n3cnnc3c2C1 | -3.13%
20 | CCCC(O)CN1CCC(=O)N(CC)Cc2cc3c(cc21)OCO3 (stereo not drawn) | -3.11%

Row | SMILES | cytotoxicity at 70.5 h
21 | CC(NC(=O)N1CCN(c2ccccc2)CC1)c1nncn1C (stereo not drawn) | -15.6%
22 | Cc1cc(N2CCc3c(ncn3C)C2)n2nc(C(F)(F)F)nc2n1 | -105%
23 | CNc1ccc(C)cc1C(=O)N1CCCC2(CCNC2)C1 (stereo not drawn) | -8.09%
24 | O=S(=O)(c1ccc(F)cc1)N1CCOC[C@H](Oc2cnccn2)C1 | 12.5%
25 | CN1C(=O)CC[C@]12CC[C@@H](NCc1ccsc1)CC2 | -5.76%
26 | CC(c1cccs1)N(C)Cc1cnc(-c2ccccn2)nc1 (stereo not drawn) | 3.52%
27 | CC(=O)N(Cc1ccsc1)c1ccccc1 | -7.44%
28 | Cc1cnn(CC2CCCN2C(=O)c2cnc(-c3ccco3)s2)c1 (stereo not drawn) | -9.06%
29 | COCC1CN(Cc2ccc(C)s2)Cc2nnn(C)c21 (stereo not drawn) | 2.8%
30 | COc1cc(Cl)cc(C(=O)N2CCC3(CCCNC3)C2)c1 (stereo not drawn) | -5.79%
31 | O=C(NCCCc1cccs1)N1CCCCC1CCO (stereo not drawn) | -1.44%
32 | COc1ncccc1CN1CCC2(CCCN2S(C)(=O)=O)CC1 | -7.14%
33 | CC(=O)Nc1cccc(OCCNC(=O)N(C)Cc2ccccc2)c1 | 3.43%
34 | CNC(=O)CCNC(=O)c1cc(C)n(-c2cccc(OC)c2)c1C | -8.45%
35 | CN1CCN(c2ccc(CO)cc2F)CC1 | -8.87%
36 | Cn1cc(NC(=O)CNC(=O)N2CCN(c3ccc(F)cc3)CC2)cn1 | -2.76%
37 | CN(Cc1cccnc1)c1nc(-c2ccccn2)nc2c1CCNCC2 | -5.18%
38 | Cc1nc2c(c(Nc3ccccn3)n1)CN(S(C)(=O)=O)CC2 | 23.4%
39 | CC(=O)Nc1nc(C(=O)N2CCCC2c2ccccc2C)cs1 (stereo not drawn) | -19.1%
40 | Cc1c(C(=O)NCC2CCS(=O)(=O)C2)cnn1-c1ccccc1 (stereo not drawn) | -1.52%

Row | SMILES | cytotoxicity at 70.5 h
41 | O=C1CCCN1Cc1ncn2c1CN(C(=O)C1CC=CC1)CCC2 | -5.43%
42 | CCS(=O)(=O)N1CCc2ccc(NC(=O)Nc3cccc(F)c3)cc21 | 33%
43 | O=C(c1ccco1)N1Cc2nccn2CC(Cn2ncccc2=O)C1 (stereo not drawn) | -6.66%
44 | Cc1cccc(CN2C[C@@H]3COC[C@]3(CNC(=O)c3ccccc3)C2)n1 | -12.2%
45 | CC(C)N1CCC(c2nccnc2Nc2ncccn2)CC1 | -4.91%
46 | CC(C)CC(=O)N1CCN(Cc2cc(-c3ccncc3)nn2C)CC1 | -3.33%
47 | O=C(Nc1cccc2c1CCCC2)C1CCCN1c1nccs1 (stereo not drawn) | 2.35%
48 | COCCn1cnnc1CCn1ccnc1-c1ccccc1Cl | 5.9%
49 | CC(NCC(N)=O)c1c(F)cccc1Cl (stereo not drawn) | -85.6%
50 | CCc1nccn1-c1cccc(C2CCCN2S(=O)(=O)N(C)C)n1 (stereo not drawn) | -7.54%
51 | CCN1Cc2cc(F)ccc2N(C(=O)C2CCC2)CCC1=O | -9.67%
52 | CCNC(=O)NCc1ccnc(N(C)C)n1 | -5.28%
53 | O=C(NCc1nnc2n1CCC2)N(Cc1ccc(F)cc1)C1CC1 | -8.55%
54 | Cc1ccc(C(=O)N2CCC(n3cc(CN)nn3)CC2)cc1F | -5.32%
55 | CCOCC1CN(C)Cc2cnn(CC3CCCC3)c21 (stereo not drawn) | -5.11%
56 | O=C1Nc2ccccc2/C1=C1\CCCCN1 | -10.3%
57 | Cc1nc[nH]c1-c1nccn1CCCN(C)C | 6.24%
58 | CNC(=O)CCNC(=O)c1cc(Br)c2c(c1)OCCO2 | -6.67%
